Data published in ChEMBL document CHEMBL5154848, “Synthesis of heterocyclic ring-fused analogs of HMG499 as novel degraders of HMG-CoA reductase that lower cholesterol” (Eur J Med Chem, 2022).
Calls of active or inactive are those of the source. The calls are words filed in the database; no cut-off is given here.

Columns and labels:
[1] = Downregulation of HMGCR expression in CHO-K1 cells assessed as fold change in HMGCR expression at 3 uM incubated for 16 hrs by immunoblot analysis (reference value: 1.0); format: functional, Cricetulus griseus
[2] = Downregulation of HMGCR expression in CHO-K1 cells assessed as fold change in HMGCR expression at 1 uM incubated for 16 hrs by immunoblot analysis (reference value: 1.0); format: functional, Cricetulus griseus
[3] = biological target: T1, 3-hydroxy-3-methylglutaryl-coenzyme A reductase (Cricetulus griseus, UniProt P00347); experiment: Induction of degradation of hamster HMGCR (TM1-8)-GFP (1 to 346 residues) transfected in CHO-7 cells incubated for 16 hrs in sterol-depleted medium by fluorescence based microplate reader assay; format: cell-based
T1 sequence (P00347 whole entry): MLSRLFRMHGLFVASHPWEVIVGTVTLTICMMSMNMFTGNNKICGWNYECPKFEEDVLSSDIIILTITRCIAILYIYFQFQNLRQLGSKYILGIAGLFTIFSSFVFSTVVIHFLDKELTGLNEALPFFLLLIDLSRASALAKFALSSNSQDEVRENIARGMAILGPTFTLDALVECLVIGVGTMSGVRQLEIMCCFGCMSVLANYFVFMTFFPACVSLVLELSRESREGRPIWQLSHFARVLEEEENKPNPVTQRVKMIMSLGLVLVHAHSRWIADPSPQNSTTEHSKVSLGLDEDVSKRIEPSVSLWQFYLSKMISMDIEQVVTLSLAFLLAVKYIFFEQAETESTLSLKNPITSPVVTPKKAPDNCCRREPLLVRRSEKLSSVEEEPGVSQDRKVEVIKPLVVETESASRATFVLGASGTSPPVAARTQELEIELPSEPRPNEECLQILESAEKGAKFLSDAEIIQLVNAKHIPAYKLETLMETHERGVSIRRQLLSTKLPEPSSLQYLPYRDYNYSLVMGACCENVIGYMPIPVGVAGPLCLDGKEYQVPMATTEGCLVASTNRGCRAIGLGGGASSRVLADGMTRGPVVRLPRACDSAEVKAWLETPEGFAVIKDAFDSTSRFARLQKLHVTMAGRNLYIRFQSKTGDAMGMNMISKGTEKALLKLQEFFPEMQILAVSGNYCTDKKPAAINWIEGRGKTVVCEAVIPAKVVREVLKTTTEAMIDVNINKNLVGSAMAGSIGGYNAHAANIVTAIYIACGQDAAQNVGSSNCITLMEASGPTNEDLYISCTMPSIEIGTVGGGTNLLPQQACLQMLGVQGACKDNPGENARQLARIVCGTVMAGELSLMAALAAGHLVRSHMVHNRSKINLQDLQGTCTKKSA

[4] = Toxicity in human SV589 cells assessed as cholesterol accumulation in lysosome at 10 uM incubated for 16 hrs by immunofluorescence based confocal microscopy; format: cell-based; conditions: sv-589, 16 h
[5] = Downregulation of lovastatin-induced HMGCR expression in CHO-K1 cells assessed as fold change in HMGCR expression at 1 uM incubated for 16 hrs by immunoblot analysis (reference value: 15.2); format: functional, Cricetulus griseus
[6] = Downregulation of lovastatin-induced HMGCR expression in CHO-K1 cells assessed as fold change in HMGCR expression at 10 uM incubated for 16 hrs by immunoblot analysis (reference value: 15.2); format: functional, Cricetulus griseus
[7] = Downregulation of HMGCR expression in CHO-K1 cells assessed as fold change in HMGCR expression at 10 uM incubated for 16 hrs by immunoblot analysis (reference value: 1.0); format: functional, Cricetulus griseus
[8] = biological target: T2, 3-hydroxy-3-methylglutaryl-coenzyme A reductase (Cricetulus griseus) (UniProt P00347); experiment: Induction of degradation of wild type HMGCR in CHO-K1 cells by immunoblot analysis; format: cell-based; conditions: DDE = dose-dependent effect
T2 sequence (whole entry): T1 sequence (P00347 whole entry)

[9] = test system: CHO-7; experiment: Growth inhibition of CHO-7 cells at 0.3 to 10 uM cultured for 7 days in sterol depleted medium in the absence of cholesterol and measured on day 8 by crystal violet staining based microscopic analysis; format: functional, cell-based; conditions: Cricetulus griseus, dose 0.3-10 µM, time 8.0 day
[10] = test system: LX-2; experiment: Downregulation of TGF-beta-1-induced cholesterol levels in human LX2 cells starved in serum free medium for 2 hrs followed by stimulation with TGF-beta-1 for 6 hrs and measured 24 hrs after compound treatment by; format: functional, cell-based; conditions: DDE = dose-dependent effect
[11] = test system: LX-2; experiment: Antiproliferative activity against human LX2 cells assessed as reduction of TGF-beta1 induced proliferation by CCK-8 assay; format: functional, cell-based; conditions: DDE = dose-dependent effect
[12] = test system: LX-2; experiment: Downregulation of TGF-beta-1-induced alpha-SMA mRNA levels in serum starved human LX2 cells pretreated with TGF-beta-1 for 6 hrs followed by compound treatment for 24 hrs by SYBR green dye based qRT-PCR analysis; format: functional, cell-based; conditions: dose <= 2.0 µM, DDE = dose-dependent effect
[13] = test system: LX-2; experiment: Downregulation of TGF-beta-1-induced COL1A1 mRNA levels in serum starved human LX2 cells pretreated with TGF-beta-1 for 6 hrs followed by compound treatment for 24 hrs by SYBR green dye based qRT-PCR analysis; format: functional, cell-based; conditions: dose <= 2.0 µM, DDE = dose-dependent effect
[14] = test system: LX-2; experiment: Downregulation of TGF-beta-1-induced TIMP1 mRNA levels in serum starved human LX2 cells pretreated with TGF-beta-1 for 6 hrs followed by compound treatment for 24 hrs by SYBR green dye based qRT-PCR analysis; format: functional, cell-based; conditions: dose <= 2.0 µM, DDE = dose-dependent effect
[15] = test system: LX-2; experiment: Downregulation of TGF-beta-1-induced TGF-beta-1 mRNA levels in serum starved human LX2 cells pretreated with TGF-beta-1 for 6 hrs followed by compound treatment for 24 hrs by SYBR green dye based qRT-PCR analysis; format: functional, cell-based; conditions: dose <= 2.0 µM, DDE = dose-dependent effect
[16] = test system: RAW264.7; experiment: Downregulation of LPS-stimulated TNF-alpha mRNA levels in mouse RAW264.7 cells pretreated with LPS for 2 hrs followed by compound treatment for 24 hrs by SYBR green dye based qRT-PCR analysis; format: functional, cell-based; conditions: dose <= 2.0 µM, DDE = dose-dependent effect
[17] = test system: RAW264.7; experiment: Downregulation of LPS-stimulated IL-6 mRNA levels in mouse RAW264.7 cells pretreated with LPS for 2 hrs followed by compound treatment for 24 hrs by SYBR green dye based qRT-PCR analysis; format: functional, cell-based; conditions: dose <= 2.0 µM, DDE = dose-dependent effect
[18] = test system: RAW264.7; experiment: Downregulation of LPS-stimulated IL-1-beta mRNA levels in mouse RAW264.7 cells pretreated with LPS for 2 hrs followed by compound treatment for 24 hrs by SYBR green dye based qRT-PCR analysis; format: functional, cell-based; conditions: dose <= 2.0 µM, DDE = dose-dependent effect
[19] = biological target: T1, 3-hydroxy-3-methylglutaryl-coenzyme A reductase; experiment: Induction of degradation of endogenous HMGCR in CHO-7 cells assessed as decrease in protein level incubated for 16 hrs in sterol-depleted medium by immunoblot analysis; format: cell-based

- EC50 [3]: 0.22 µM
- Activity [8]: Dde
- EC50 [19]: 0.13 µM
SMILES: CC(=O)n1ncc2c1C(C)(C)C1=CC[C@H]3[C@@H]4CC[C@H]([C@H](C)CCC(=O)N5CCOCC5)[C@@]4(C)CC[C@@H]3[C@@]1(C)C2
- fold change (FC) [1]: 0.1
- fold change (FC) [2]: 0.3
- Activity [4]: Non-Toxic
- fold change (FC) [5]: 2.4
- fold change (FC) [6]: 0.4
- fold change (FC) [7]: 0.1
- inhibition [9]: Active
- Activity [10]: Dde
- Activity [11]: Dde
- Activity [12]: Dde
- Activity [13]: Dde
- Activity [14]: Dde
- Activity [15]: Dde
- Activity [16]: Dde
- Activity [17]: Dde
- Activity [18]: Dde
